# According to ChEMBL document CHEMBL3596126, “Synthesis, molecular docking and anticancer studies of peptides and iso-peptides” (Bioorg Med Chem Lett, 2015):
# Where a SMILES comes first, the peptide text is derived from it. Side-chain parts run from the residue outwards. The star is where a group is joined. Cbz = O=C(OCc1ccccc1)*; Boc = CC(C)(C)OC(=O)*
# What was measured:
# HEK293 = test: Inhibition of TNF-alpha activated nuclear factor-kappa B in HEK293 cells at 20 ug/ml after 6 hrs by luciferase reporter gene assay relative to control; type: cell-based; details: Homo sapiens
# MDA-MB-231 = test: Cytotoxicity against human MDA-MB-231 cells assessed as cell survival at 20 ug/ml relative to control; type: functional; details: read-out: Survival
# [1] = biological target: NAD(P)H dehydrogenase [quinone] 1 (Mus musculus) (UniProt Q64669); test: Activation of Quinone reductase-1 in mouse Hepa-1c1c7 cells assessed as induction ratio at 20 ug/ml after 48 hrs by MTT assay; type: cell-based
# Chain of NAD(P)H dehydrogenase [quinone] 1 (Mus musculus) (Q64669 whole entry): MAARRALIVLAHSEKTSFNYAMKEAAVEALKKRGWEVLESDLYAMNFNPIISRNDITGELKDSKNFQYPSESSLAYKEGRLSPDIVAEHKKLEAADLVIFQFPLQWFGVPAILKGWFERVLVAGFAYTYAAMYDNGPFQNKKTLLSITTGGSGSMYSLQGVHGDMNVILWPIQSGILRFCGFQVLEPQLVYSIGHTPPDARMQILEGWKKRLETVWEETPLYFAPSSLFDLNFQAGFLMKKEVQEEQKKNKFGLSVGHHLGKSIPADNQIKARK
# MCF7 = test: Cytotoxicity against human MCF7 cells assessed as cell survival at 20 ug/ml relative to control; type: functional; details: read-out: Survival
# [2] = Cytotoxicity against HEK293 cells assessed as cell survival at 20 ug/ml after 6 hrs by SRB assay relative to control; type: cell-based; details: human, read-out: Survival
# [3] = Inhibition of TNF-alpha activated nuclear factor-kappa B in HEK293 cells after 6 hrs by luciferase reporter gene assay; type: cell-based; details: Homo sapiens, HEK293, 6 h
IC50 [3],SMILES,inhibition (HEK293),viability at 20 µg/mL (MDA-MB-231),Ratio [1],viability at 20 µg/mL (MCF7),"viability at 6 h, 20 ug/ml [2]"
–,CC(C)(C)OC(=O)NCC(=O)n1nnc2ccccc21,41.3%,108%,1.1,90.3%,110%
–,C[C@H](OC(=O)CNC(=O)OC(C)(C)C)[C@H](NC(=O)[C@@H](N)Cc1ccccc1)C(=O)O,26.3%,93.9%,1,93.8%,103%
–,CC(C)(C)OC(=O)NCC(=O)OC[C@@H](NC(=O)[C@H](Cc1ccccc1)NC(=O)OCc1ccccc1)C(=O)O,10.1%,106%,1.1,126%,121%
–,CC(C)(C)OC(=O)NCC(=O)OC[C@H](NC(=O)[C@@H](N)Cc1ccccc1)C(=O)O (H-Phe-Ser([Gly-Boc])-OH),14.8%,99.4%,2.4,104%,121%
–,C[C@H](NC(=O)OCc1ccccc1)C(=O)N[C@H](C(=O)O)[C@H](C)O,–,92.8%,1.7,106%,116%
–,C[C@H](NC(=O)OCc1ccccc1)C(=O)N[C@@H](CO)C(=O)O,13.9%,98.1%,1.1,78.6%,110%
–,C[C@H](NC(=O)OCc1ccccc1)C(=O)N[C@@H](Cc1ccccc1)C(=O)n1nnc2ccccc21,49.6%,91.4%,1.2,59.3%,104%
–,O=C(N[C@@H](Cc1ccccc1)C(=O)NCC(=O)n1nnc2ccccc21)OCc1ccccc1,12.2%,106%,0.9,93.2%,96.9%
–,C[C@H](NC(=O)OCc1ccccc1)C(=O)N[C@H](CO)C(=O)O,10.7%,94.9%,0.9,66.3%,123%
–,C[C@H](NC(=O)OCc1ccccc1)C(=O)n1nnc2ccccc21,32.6%,106%,1,104%,126%
–,C[C@H](OC(=O)CNC(=O)OC(C)(C)C)[C@H](NC(=O)[C@H](Cc1ccccc1)NC(=O)OCc1ccccc1)C(=O)O,-4.1%,83.9%,0.9,114%,122%
–,CC(C)(C)OC(=O)NCC(=O)OC[C@H](NC(=O)[C@H](Cc1ccccc1)NC(=O)OCc1ccccc1)C(=O)O,-5.2%,92.1%,1.1,142%,136%
–,O=C(N[C@@H](Cc1ccccc1)C(=O)N[C@H](CO)C(=O)O)OCc1ccccc1,24.5%,97.4%,1.5,69.5%,122%
–,C[C@H](NC(=O)OCc1ccccc1)C(=O)N[C@@H](Cc1ccccc1)C(=O)O,18.7%,98.9%,1.1,63.9%,113%
–,C[C@H](NC(=O)OC(C)(C)C)C(=O)n1nnc2ccccc21,35.7%,90.9%,1.2,75.8%,122%
–,c1ccc2[nH]nnc2c1 [BENZOTRIAZOLE],3.6%,103%,1.2,104%,99.7%
5.05 µM,Cc1ccc(S(=O)(=O)N[C@@H](Cc2ccccc2)C(=O)CCl)cc1 [TPCK],–,–,–,–,–
–,C[C@H](NC(=O)OCc1ccccc1)C(=O)N[C@@H](COC(=O)CNC(=O)OC(C)(C)C)C(=O)O (Cbz-Ala-Ser([Gly-Boc])-OH),22%,104%,2.5,110%,108%
–,O=C(N[C@@H](Cc1ccccc1)C(=O)n1nnc2ccccc21)OCc1ccccc1,–,98%,1.3,74.2%,104%
–,O=C(N[C@@H](Cc1ccccc1)C(=O)N[C@@H](CO)C(=O)O)OCc1ccccc1,18.3%,99.9%,1.2,75.8%,119%
–,C[C@H](O)[C@H](NC(=O)[C@H](Cc1ccccc1)NC(=O)OCc1ccccc1)C(=O)O,55.7%,104%,2.2,58.3%,122%
